The subject of assay [1] is inherited obese mice (C57BL ob/ob). Kind of assay: Blood sugar-lowering effect in glucose tolerance test, inherited obese mice (C57BL ob/ob). Format: in vivo, mouse (C57BL ob/ob). The settings on record: 10 mg/kg oral, 5 days; glucose 2 g/kg orally after overnight fasting; blood sugar at 0, 30 and 60 minutes. As to the method: Employing inherited obese mice (C57BL ob/ob), prior to test, the blood sugar level was determined by collecting blood from caudal vein. The mice were grouped so as not to cause any difference in the blood sugar level, and the compounds of Example 16, 17 and 29 were administered orally for 5 days at a dosage of 10 mg/kg. For the glucose tolerance test, 2 g/kg of glucose were administered orally after fasting overnight and the blood sugar levels at 0 minute, 30 minutes and 60 minutes were determined. The blood sugar-lowering rate was calculated from following formula. [formula]

The test system is the same in assay [2]. Briefly: Triglyceride-lowering effect in blood, inherited obese mice (C57BL ob/ob). Format: in vivo, mouse (C57BL ob/ob). The settings on record: 2 weeks. As to the method:
Employing inherited obese mice (C57BL ob/ob), the compound of Example 16 was administered orally for 2 weeks at following dosages, and thereafter the triglyceride level in blood was determined. The triglyceride-lowering rate in blood was calculated from following formula. [formula]

The target in a further assay is T1, aldose reductase (Rattus norvegicus, UniProt P07943).
T1 construct: aldose reductase extracted from rat lens; from tissue; host or cells: rat lens
Kind of assay: In-vitro inhibitory effect against aldose reductase extracted from rat lens (method of Hayman and Kinoshita). It is filed as biochemical. The source says:
Against aldose reductase extracted from rat lens, the in-vitro inhibitory effect of the compound of Example 16 was investigated by the method of Hayman and Kinoshita (Journal of Biological Chemistry, vol. 240, p. 877 (1965)).

The structures appear in SMILES notation.

Compound `O=C1NC(=O)C(c2ccc(F)c(C(=O)NCc3ccc(C(F)(F)F)cc3)c2)S1` (stereo not drawn) [Example 29] gave a Blood sugar-depressing rate in assay [1] of 30%.

In assay [1], `COc1ccc(C2SC(=O)NC2=O)cc1C(=O)NCc1cccc(C(F)(F)F)c1` (stereo not drawn) [Example 17] yielded a Blood sugar-depressing rate of 42%.

What is called IC50 is the concentration that gives 50% inhibition. With `COc1ccc(C2SC(=O)NC2=O)cc1C(=O)NCc1ccc(C(F)(F)F)cc1` (stereo not drawn) [Example 16, N-(4-trifluoromethylbenzyl)-5-(2,4-dioxothiazolidin-5-yl)-2-methoxybenzamid], in assay [1], the Blood sugar-depressing rate is 48%. For the same compound, the “In-blood triglyceride depressing rate” value in assay [2] (3 mg/kg oral) amounted to 51%; in assay [2] (10 mg/kg oral), 70%. 23 nM corresponded to half-maximal inhibition at aldose reductase (IC50).

The record behind these values is US5948803A, “N-substituted dioxothiazolidylbenzamide derivatives and process for producing the same” (Kyorin Pharmaceutical Co., Ltd., priority 1995, dated 1999).
